Test results: DBAASP
Converted amounts (≈) assume the structure as drawn. Blank lines part the entries; values can stand above or below the compound they belong to.

Legend:
Test in all cases: ≥ marks a high value that may be exact or a test limit, other limits are often not marked, values filed in µg/mL are converted to µM
Escherichia coli BL21 = test system: Escherichia coli BL21
[1] = test system: Pseudomonas aeruginosa PAO1
Pseudomonas syringae = test system: Pseudomonas syringae
[2] = test system: Streptococcus pyogenes GAS M1T1
[3] = test system: Xanthomonas axonopodis pv. phaseoli ATCC 9563
[4] = test system: Staphylococcus aureus CGMCC 1.8721
[5] = test system: Staphylococcus epidermidis CGMCC 1.4260
[6] = test system: Klebsiella pneumoniae CGMCC 1.1736
[7] = test system: Bacillus subtilis CGMCC 1.3376
[8] = test system: Pseudomonas aeruginosa CGMCC 1.2421
[9] = test system: Escherichia coli CGMCC 1.8732
Escherichia coli K-12 = test system: Escherichia coli K-12
[10] = test system: Staphylococcus aureus ATCC 6538
[11] = test system: Bacillus subtilis ATCC 6633
[12] = test system: Micrococcus luteus NCIMB 13267
[13] = test system: Pseudomonas aeruginosa ATCC 27853
[14] = test system: Escherichia coli ATCC 11775
[15] = test system: Staphylococcus epidermidis ATCC 12228
[16] = test system: Pseudomonas aeruginosa ATCC 25668
[17] = test system: Staphylococcus epidermidis ATCC 51625
[18] = test system: Staphylococcus aureus ATCC BAA-44
[19] = test system: Staphylococcus aureus ATCC 33591
[20] = test system: Acinetobacter baumannii ATCC 19606
[21] = test system: Staphylococcus aureus ATCC 29213
[22] = test system: Enterococcus faecalis ATCC 7080
[23] = test system: Staphylococcus aureus ATCC 25923
[24] = test system: Escherichia coli ATCC 25322
[25] = test system: Staphylococcus aureus CGMCC 1.363
[26] = test system: Vibrio fluvialis CGMCC 1.1609
[27] = test system: Staphylococcus epidermidis CGMCC 1.2429
[28] = test system: Shigella flexneri CGMCC 1.1868
Edwardsiella tarda = test system: Edwardsiella tarda
Aeromonas sobria = test system: Aeromonas sobria
[29] = test system: Micrococcus luteus CGMCC 1.0634
[30] = test system: Pseudomonas fluorescens CGMCC 1.0032
[31] = test system: Aeromonas hydrophila CGMCC 1.0927
[32] = test system: Corynebacterium glutamicum CGMCC 1.1886
[33] = test system: Vibrio parahaemolyticus CGMCC 1.1615
[34] = test system: Candida albicans CGMCC 2.2411
[35] = test system: Vibrio harveyi CGMCC 1.1593
[36] = test system: Vibrio alginolyticus CGMCC 1.1833
Escherichia coli MC1061 = test system: Escherichia coli MC1061
[37] = test system: Micrococcus luteus CGMCC 1.634
[38] = test system: Bacillus subtilis CGMCC 1.108

SMILES: CC[C@H](C)[C@H](NC(=O)[C@H](CCCCN)NC(=O)[C@H](CC(N)=O)NC(=O)[C@H](CCCCN)NC(=O)[C@H](CC(C)C)NC(=O)[C@H](Cc1ccc(O)cc1)NC(=O)[C@H](CCC(N)=O)NC(=O)[C@H](CCCN=C(N)N)NC(=O)[C@@H](NC(=O)[C@@H](NC(=O)[C@H](CCCCN)NC(=O)[C@H](CCCCN)NC(=O)CNC(=O)[C@H](C)N)[C@@H](C)O)[C@@H](C)CC)C(=O)N[C@@H](CCCCN)C(=O)N[C@@H](CCCCN)C(=O)N[C@@H](CCCCN)C(=O)N[C@@H](Cc1c[nH]c2ccccc12)C(=O)N[C@@H](CCCN=C(N)N)C(=O)N[C@@H](CCCCN)C(=O)N[C@@H](C)C(=O)N[C@H](C(=O)N[C@H](C(=O)N[C@@H](C)C(=O)N[C@@H](Cc1c[nH]c2ccccc12)C(=O)O)[C@@H](C)CC)C(C)C [AGKKTIRQYLKNKIKKKWRKAVIAW]
MIC (Escherichia coli BL21): 8 µM (≈ 24.5 µg/mL)
MIC [1]: 10 µM (≈ 30.6 µg/mL)
MIC (Pseudomonas syringae): 8 µM (≈ 24.5 µg/mL)
MIC [2]: 8 µM (≈ 24.5 µg/mL)
MIC [3]: 1 µM (≈ 3.06 µg/mL)

SMILES: CC(C)C[C@H](NC(=O)[C@H](Cc1c[nH]c2ccccc12)NC(=O)[C@H](CCCCN)NC(=O)[C@H](CC(C)C)NC(=O)[C@H](Cc1c[nH]c2ccccc12)NC(=O)[C@H](CCCCN)NC(=O)[C@H](CCCCN)NC(=O)[C@H](CC(C)C)NC(=O)[C@H](Cc1c[nH]c2ccccc12)NC(=O)[C@@H](N)CCCCN)C(=O)N[C@@H](CCCCN)C(=O)N[C@@H](CCCCN)C(N)=O [KWLKKWLKWLKK]
MIC [14]: 1.19 µM (≈ 2 µg/mL)
MIC [15]: 1.19 µM (≈ 2 µg/mL)
MIC [16]: 1.19 µM (≈ 2 µg/mL)
MIC [17]: 1.19 µM (≈ 2 µg/mL)
MIC [18]: 2.37 µM (≈ 4 µg/mL)
MIC [19]: 1.19 µM (≈ 2 µg/mL)
MIC [20]: 4.75 µM (≈ 8 µg/mL)
MIC [21]: 1.19 µM (≈ 2 µg/mL)
MIC [22]: 9.49 µM (≈ 16 µg/mL)

Continued, in another order:

MIC [4]: ≥ 100 µM
MIC [5]: 6.25 µM (≈ 15.6 µg/mL)
MIC [6]: 25 µM (≈ 62.3 µg/mL)
MIC [7]: 12.5 µM (≈ 31.2 µg/mL)
MIC [8]: 25 µM (≈ 62.3 µg/mL)
MIC [9]: 25 µM (≈ 62.3 µg/mL)
SMILES: CC[C@H](C)[C@H](NC(=O)[C@H](C)N)C(=O)NCC(=O)N[C@@H](CO)C(=O)N[C@H](C(=O)N[C@@H](CC(C)C)C(=O)NCC(=O)N[C@@H](CCCN=C(N)N)C(=O)N[C@@H](CC(C)C)C(=O)N[C@@H](C)C(=O)N[C@@H](CCCCN)C(=O)NCC(=O)N[C@@H](CC(C)C)C(=O)N1CCC[C@H]1C(=O)N[C@H](C(=O)N[C@@H](CC(C)C)C(=O)N[C@@H](CCCCN)C(=O)N[C@@H](CO)C(=O)N[C@@H](Cc1c[nH]c2ccccc12)C(=O)N[C@H](C(=O)N[C@@H](CCCCN)C(=O)N[C@@H](CC(N)=O)C(=O)N[C@@H](CCCN=C(N)N)C(N)=O)[C@@H](C)CC)[C@@H](C)O)[C@@H](C)CC [AIGSILGRLAKGLPTLKSWIKNR]

MIC (Escherichia coli K-12): 3 µM (≈ 7.34 µg/mL)
MIC [10]: > 50 µM
MIC [11]: 6 µM (≈ 14.7 µg/mL)
MIC [12]: 12 µM (≈ 29.4 µg/mL)
MIC [13]: 12 µM (≈ 29.4 µg/mL)
SMILES: CC(C)C[C@H](NC(=O)[C@H](CCCCN)NC(=O)[C@H](C)NC(=O)[C@H](CC(C)C)NC(=O)[C@H](CCCCN)NC(=O)[C@H](CCC(N)=O)NC(=O)[C@H](CCCCN)NC(=O)[C@H](CC(C)C)NC(=O)[C@H](CCCCN)NC(=O)[C@H](CCC(N)=O)NC(=O)[C@H](CC(C)C)NC(=O)[C@H](CCCCN)NC(=O)[C@H](C)NC(=O)[C@H](CCCCN)NC(=O)[C@H](CC(C)C)NC(=O)[C@H](CCCCN)NC(=O)[C@H](C)NC(=O)[C@H](CC(C)C)NC(=O)[C@H](CCCCN)NC(=O)[C@H](CCC(N)=O)NC(=O)[C@@H](N)CCCCN)C(=O)O [KQKLAKLKAKLQKLKQKLAKL]

MIC [23]: 32 µM (≈ 55.7 µg/mL)
MIC [24]: ≥ 64 µM
SMILES: CC(C)C[C@H](NC(=O)CNC(=O)[C@H](CC(N)=O)NC(=O)[C@@H](NC(=O)[C@@H](NC(=O)CNC(=O)[C@H](CC(C)C)NC(=O)[C@H](C)NC(=O)[C@H](CCCCN)NC(=O)[C@H](CC(N)=O)NC(=O)[C@H](CC(C)C)NC(=O)[C@H](CC(C)C)NC(=O)[C@@H](N)CC(N)=O)[C@@H](C)O)C(C)C)C(=O)N[C@@H](CC(C)C)C(=O)NCC(=O)N[C@@H](CCCN=C(N)N)C(=O)N[C@@H](CO)C(=O)O [NLLNKALGTVNGLLGRS]

MIC [25]: 4.24 µM (≈ 9.33 µg/mL)
MIC [26]: ≥ 48 µM
MIC [27]: 17 µM (≈ 37.3 µg/mL)
MIC [28]: 4.24 µM (≈ 9.33 µg/mL)
MIC (Edwardsiella tarda): ≥ 48 µM
MIC (Aeromonas sobria): ≥ 48 µM
MIC [29]: 4.24 µM (≈ 9.33 µg/mL)
MIC [30]: 4.24 µM (≈ 9.33 µg/mL)
MIC [31]: 4.24 µM (≈ 9.33 µg/mL)
MIC [32]: 2.12 µM (≈ 4.67 µg/mL)
MIC [34]: ≥ 48 µM
MIC [35]: ≥ 48 µM
MIC [36]: ≥ 48 µM
MIC (Escherichia coli MC1061): 4.24 µM (≈ 9.33 µg/mL)
MIC [37]: 2.12 µM (≈ 4.67 µg/mL)
MIC [38]: 4.24 µM (≈ 9.33 µg/mL)
SMILES: CC[C@H](C)[C@H](NC(=O)[C@H](CCCN=C(N)N)NC(=O)CNC(=O)[C@@H](NC(=O)[C@@H]1CCCN1C(=O)[C@H](Cc1ccccc1)NC(=O)[C@H](CCC(N)=O)NC(=O)[C@H](CC(C)C)NC(=O)CNC(=O)[C@H](C)NC(=O)[C@H](CCCN=C(N)N)NC(=O)[C@H](C)NC(=O)[C@H](CO)NC(=O)[C@@H](N)CCCN=C(N)N)C(C)C)C(=O)N[C@@H](Cc1cnc[nH]1)C(=O)N[C@@H](CCCN=C(N)N)C(=O)N[C@@H](Cc1cnc[nH]1)C(=O)N[C@@H](CC(C)C)C(=O)N[C@@H](CCCCN)C(=O)O [RSARAGLQFPVGRIHRHLK]
MIC [33]: ≥ 48 µM
